“Also recorded” adds a separate entry of the source.
Legend:
TAF1-2 = target: T1, TAF1-2 (Homo sapiens, UniProt P21675); assay: DSF for TAFi with TAF1-2; format: binding; details: protein TAF1-2, DMSO = 0
T1 construct: a tandem bromodomain (BD1 and BD2)
T1 sequence (P21675 1519-1628 limits assumed): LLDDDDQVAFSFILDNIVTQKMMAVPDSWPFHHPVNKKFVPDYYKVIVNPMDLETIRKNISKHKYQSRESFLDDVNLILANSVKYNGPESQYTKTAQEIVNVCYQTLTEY

purified FLAG-ATR = target: T2, purified FLAG-ATR (Homo sapiens, UniProt Q13535); assay: ELISA-based kinase activity: phosphorylation of p53 S15 by purified FLAG-ATR in vitro; format: biochemical; details: FIG. 3
T2 construct: FLAG
T2 sequence (Q13535 whole entry): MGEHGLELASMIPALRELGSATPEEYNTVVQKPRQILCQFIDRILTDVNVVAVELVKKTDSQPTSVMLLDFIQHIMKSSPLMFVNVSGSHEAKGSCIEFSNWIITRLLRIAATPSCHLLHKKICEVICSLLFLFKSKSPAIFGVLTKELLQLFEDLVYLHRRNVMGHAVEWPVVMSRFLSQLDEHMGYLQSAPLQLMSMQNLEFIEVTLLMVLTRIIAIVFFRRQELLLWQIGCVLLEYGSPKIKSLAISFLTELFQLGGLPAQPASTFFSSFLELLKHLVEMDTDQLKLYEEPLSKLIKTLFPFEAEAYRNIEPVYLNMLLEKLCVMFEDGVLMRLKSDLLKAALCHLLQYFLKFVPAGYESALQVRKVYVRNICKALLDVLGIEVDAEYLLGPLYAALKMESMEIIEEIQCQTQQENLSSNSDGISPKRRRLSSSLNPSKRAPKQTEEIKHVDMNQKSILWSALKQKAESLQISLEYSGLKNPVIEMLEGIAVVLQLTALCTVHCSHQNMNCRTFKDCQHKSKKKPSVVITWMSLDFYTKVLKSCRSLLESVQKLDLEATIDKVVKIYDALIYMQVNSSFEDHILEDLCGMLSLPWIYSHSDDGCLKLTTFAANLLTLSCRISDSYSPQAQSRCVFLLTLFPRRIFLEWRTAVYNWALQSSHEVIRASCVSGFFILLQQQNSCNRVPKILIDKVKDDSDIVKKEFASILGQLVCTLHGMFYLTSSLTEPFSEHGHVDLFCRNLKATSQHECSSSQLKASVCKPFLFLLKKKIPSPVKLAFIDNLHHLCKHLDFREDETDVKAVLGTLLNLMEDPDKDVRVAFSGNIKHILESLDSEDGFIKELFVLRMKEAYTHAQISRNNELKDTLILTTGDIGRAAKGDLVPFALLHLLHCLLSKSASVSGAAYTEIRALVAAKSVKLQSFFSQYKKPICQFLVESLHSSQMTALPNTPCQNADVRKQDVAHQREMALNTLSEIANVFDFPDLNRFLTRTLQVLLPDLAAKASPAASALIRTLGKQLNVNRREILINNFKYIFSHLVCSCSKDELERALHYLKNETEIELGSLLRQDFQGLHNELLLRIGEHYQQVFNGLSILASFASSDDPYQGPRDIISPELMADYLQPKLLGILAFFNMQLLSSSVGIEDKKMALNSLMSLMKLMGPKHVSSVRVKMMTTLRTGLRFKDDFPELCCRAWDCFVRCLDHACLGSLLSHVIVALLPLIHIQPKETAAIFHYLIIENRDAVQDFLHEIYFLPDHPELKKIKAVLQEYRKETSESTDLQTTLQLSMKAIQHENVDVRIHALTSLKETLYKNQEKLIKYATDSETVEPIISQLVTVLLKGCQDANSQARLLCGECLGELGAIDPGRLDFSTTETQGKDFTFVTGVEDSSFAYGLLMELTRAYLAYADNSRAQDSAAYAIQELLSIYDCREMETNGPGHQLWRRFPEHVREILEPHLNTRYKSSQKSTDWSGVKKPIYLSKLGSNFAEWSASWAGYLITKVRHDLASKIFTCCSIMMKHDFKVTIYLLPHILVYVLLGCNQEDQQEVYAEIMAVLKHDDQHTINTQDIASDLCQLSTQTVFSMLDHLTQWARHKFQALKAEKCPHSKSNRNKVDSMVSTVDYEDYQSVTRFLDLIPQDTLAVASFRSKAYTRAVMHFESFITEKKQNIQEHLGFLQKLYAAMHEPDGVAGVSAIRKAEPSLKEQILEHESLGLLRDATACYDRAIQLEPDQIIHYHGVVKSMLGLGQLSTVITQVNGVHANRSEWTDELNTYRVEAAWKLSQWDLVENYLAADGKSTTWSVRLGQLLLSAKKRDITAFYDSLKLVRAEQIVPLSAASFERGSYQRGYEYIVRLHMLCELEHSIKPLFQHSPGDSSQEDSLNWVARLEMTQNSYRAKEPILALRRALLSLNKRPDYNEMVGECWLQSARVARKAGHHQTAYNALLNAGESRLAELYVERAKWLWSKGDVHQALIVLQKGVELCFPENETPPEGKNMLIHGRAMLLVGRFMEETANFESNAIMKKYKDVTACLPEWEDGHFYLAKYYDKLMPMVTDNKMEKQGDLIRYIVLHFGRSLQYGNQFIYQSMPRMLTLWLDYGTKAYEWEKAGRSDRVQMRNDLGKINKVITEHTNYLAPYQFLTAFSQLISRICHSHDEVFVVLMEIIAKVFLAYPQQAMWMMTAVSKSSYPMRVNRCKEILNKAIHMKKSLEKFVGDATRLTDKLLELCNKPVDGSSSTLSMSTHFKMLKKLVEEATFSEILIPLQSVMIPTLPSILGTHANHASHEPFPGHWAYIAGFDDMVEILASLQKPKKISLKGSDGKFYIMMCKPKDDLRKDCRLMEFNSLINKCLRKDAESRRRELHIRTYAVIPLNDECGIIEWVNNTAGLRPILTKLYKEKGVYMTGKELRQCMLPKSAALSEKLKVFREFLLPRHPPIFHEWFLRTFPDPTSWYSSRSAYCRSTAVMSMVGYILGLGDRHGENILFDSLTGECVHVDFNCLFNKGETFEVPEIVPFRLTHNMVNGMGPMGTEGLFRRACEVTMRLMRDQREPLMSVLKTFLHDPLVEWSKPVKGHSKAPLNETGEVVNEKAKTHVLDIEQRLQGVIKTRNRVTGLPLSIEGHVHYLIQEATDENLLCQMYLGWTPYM
From the text: ELISA-based kinase activity was used to test the ability of compounds to inhibit phosphorylation of p53 S15 by purified FLAG-ATR in vitro.

[1] = test system: HCT116 cells with and without p53; assay: Western blot of marker expression (p21) in HCT116 cells with and without p53; format: cell-based; details: HCT116 cells with and without p53, treated 30 hrs, FIG. 4
Method: HCT116 cells with and without p53 were treated with compounds for 30 hrs. Expression levels of indicated markers were determined by western blot.

| SMILES | ATm + SEM (° C.) (TAF1-2) | inhibition of ATR (phosphorylation of p53 S15) (purified FLAG-ATR) | p53-mediated p21 expression [1] |
| --- | --- | --- | --- |
| C[C@@H]1COCCN1c1cc(C2([S@](C)(=N)=O)CC2)nc(-c2cc[nH]c3nccc2-3)n1 [AZD6738] | 3.4 ± 0.1 °C | – | – |
| C=CCCn1cc(-c2cc(C3([S@](C)(=N)=O)CC3)nc(-c3ccnc4[nH]ccc34)n2)c2cc[nH]c2c1=O [ZS1-681] | – | does not inhibit ATR; also recorded: absence of inhibition | induces p53-mediated p21 expression |
| C=CCCn1cc(-c2cc(C(=O)N3CCOCC3)cc3c2ncn3C)c2cc[nH]c2c1=O [GNE-371, reference compound] | – | absence of inhibition | – |

Source: patent publication US12617787B2, “Merged scaffold TAF1 inhibitors” (H. LEE MOFFITT CANCER CENTER AND RESEARCH INSTITUTE, INC., priority 2020, dated 2026)
